# Test results reported in PubChem BioAssay (NCI).
#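 Method: 48-hour compound exposure of cells in 96-well plates, five concentrations, linear interpolation of endpoints. The concentration for 50% growth inhibition is given as GI50. Definition used: TGI = concentration required for complete inhibition of growth.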
# Assays:
# Assay in all cases: NCI-60 cell line screen, 48 h
# [1] = tested on: T-47D breast
# [2] = tested on: NCI/ADR-RES ovarian
# [3] = tested on: HL-60(TB) leukemia
# [4] = tested on: HS 578T breast
# [5] = tested on: SNB-75 CNS
# [6] = tested on: KM12 colon
# [7] = tested on: NCI-H522 lung
# [8] = tested on: IGROV1 ovarian
# [9] = tested on: 786-0 renal
# [10] = tested on: MDA-MB-435
# [11] = tested on: U251 CNS
# [12] = tested on: HOP-62 NSCLC
# [13] = tested on: A498 renal
# [14] = tested on: DU-145 prostate
# [15] = tested on: LOX IMVI melanoma
# [16] = tested on: SF-295 CNS
# [17] = tested on: OVCAR-4 ovarian
# [18] = tested on: PC-3 prostate
# [19] = tested on: SNB-19 CNS
# [20] = tested on: SK-MEL-2 melanoma
# [21] = tested on: HOP-92 NSCLC
# [22] = tested on: RXF 393 renal
# [23] = tested on: MDA-MB-231 breast
# [24] = tested on: SF-268 CNS
# [25] = tested on: M14 melanoma
# [26] = tested on: SK-OV-3 ovarian
# [27] = tested on: NCI-H460 lung
# [28] = tested on: MCF7 breast
# [29] = tested on: BT-549 breast
# [30] = tested on: COLO 205 colon
# [31] = tested on: UO-31 renal
# [32] = tested on: UACC-257 melanoma
# [33] = tested on: SK-MEL-28 melanoma
# [34] = tested on: CCRF-CEM leukemia
# [35] = tested on: K-562 leukemia
# [36] = tested on: NCI-H226 lung
# [37] = tested on: TK-10 renal
# [38] = tested on: SK-MEL-5 melanoma
# [39] = tested on: HCT-15 colon
# [40] = tested on: RPMI-8226 leukemia
# [41] = tested on: NCI-H23 lung
# [42] = tested on: SW-620 colon
# [43] = tested on: OVCAR-8 ovarian
# [44] = tested on: SF-539 CNS
# [45] = tested on: SN12C renal
# [46] = tested on: HT29 colon
# [47] = tested on: MOLT-4 leukemia
# [48] = tested on: HCT-116 colon
# [49] = tested on: UACC-62 melanoma
# [50] = tested on: EKVX NSCLC
# [51] = tested on: HCC-2998 colon
# [52] = tested on: MALME-3M melanoma
# [53] = tested on: CAKI-1 renal
# [54] = tested on: A549 NSCLC
# [55] = tested on: ACHN renal
# [56] = tested on: OVCAR-3 ovarian
# [57] = tested on: OVCAR-5 ovarian
smiles,measurement,setting,value
COCO[C@@H]1CC2C=Nc3cc(OCc4ccccc4)c(OC)cc3C(=O)N2C1 (some centres undefined),GI50,[1],154 nM
same,GI50,[2],703 nM
same,TGI,[2],6390 nM
same,GI50,[3],486 nM
same,TGI,[3],> 100000 nM
same,GI50,[4],572 nM
same,TGI,[4],4970 nM
same,GI50,[5],1090 nM
same,GI50,[6],578 nM
same,TGI,[6],10600 nM
same,GI50,[7],152 nM
same,TGI,[7],640 nM
same,GI50,[8],436 nM
same,TGI,[8],20500 nM
same,GI50,[9],1300 nM
same,TGI,[9],30900 nM
same,GI50,[10],455 nM
same,TGI,[10],1860 nM
same,GI50,[11],508 nM
same,TGI,[11],14100 nM
same,GI50,[12],351 nM
same,TGI,[12],2800 nM
same,GI50,[13],976 nM
same,TGI,[13],3250 nM
same,GI50,[14],426 nM
same,TGI,[14],5240 nM
same,GI50,[15],305 nM
same,TGI,[15],10400 nM
same,GI50,[16],559 nM
same,TGI,[16],12100 nM
same,GI50,[17],1320 nM
same,TGI,[17],27500 nM
same,GI50,[18],1090 nM
same,TGI,[18],36900 nM
same,GI50,[19],1060 nM
same,TGI,[19],44600 nM
same,GI50,[20],490 nM
same,TGI,[20],2080 nM
same,GI50,[21],456 nM
same,TGI,[21],6830 nM
same,GI50,[22],242 nM
same,TGI,[22],972 nM
same,GI50,[23],248 nM
same,TGI,[23],1570 nM
same,GI50,[24],646 nM
same,TGI,[24],9310 nM
same,GI50,[25],420 nM
same,TGI,[25],1390 nM
same,GI50,[26],611 nM
same,TGI,[26],6200 nM
same,GI50,[27],360 nM
same,TGI,[27],14300 nM
same,GI50,[28],273 nM
same,TGI,[28],> 35400 nM
same,GI50,[29],310 nM
same,TGI,[29],2390 nM
same,GI50,[30],181 nM
same,TGI,[30],386 nM
same,GI50,[31],237 nM
same,TGI,[31],2140 nM
same,GI50,[32],1090 nM
same,GI50,[33],1600 nM
same,TGI,[33],12600 nM
same,GI50,[34],313 nM
same,TGI,[34],21600 nM
same,GI50,[35],450 nM
same,TGI,[35],> 100000 nM
same,GI50,[36],2880 nM
same,TGI,[36],61100 nM
same,GI50,[37],869 nM
same,GI50,[38],357 nM
same,TGI,[38],908 nM
same,GI50,[39],844 nM
same,TGI,[39],6560 nM
same,GI50,[40],211 nM
same,TGI,[40],> 20800 nM
same,GI50,[41],672 nM
same,TGI,[41],1970 nM
same,GI50,[42],482 nM
same,TGI,[42],8610 nM
same,GI50,[43],348 nM
same,TGI,[43],6520 nM
same,GI50,[44],163 nM
same,TGI,[44],815 nM
same,GI50,[45],490 nM
same,TGI,[45],2140 nM
same,GI50,[46],400 nM
same,TGI,[46],> 100000 nM
same,GI50,[47],175 nM
same,GI50,[48],660 nM
same,TGI,[48],26000 nM
same,GI50,[49],463 nM
same,TGI,[49],1030 nM
same,GI50,[50],1090 nM
same,TGI,[50],4850 nM
same,GI50,[51],519 nM
same,TGI,[51],2630 nM
same,GI50,[52],370 nM
same,TGI,[52],2790 nM
same,GI50,[53],209 nM
same,TGI,[53],513 nM
same,GI50,[54],468 nM
same,TGI,[54],9150 nM
same,GI50,[55],338 nM
same,TGI,[55],1710 nM
same,GI50,[56],222 nM
same,TGI,[56],3130 nM
same,GI50,[57],765 nM
same,TGI,[57],5790 nM
